The values below come from patent US9328099B2, “Cyanomethylpyrazole carboxamides as janus kinase inhibitors” (Merck Sharp & Dohme Corp., priority 2011, dated 2016).

Where two headings read alike, the source gives them in different places. A value given as a limit tells only on which side of the number the result lay.

The target in one experiment is JAK1 (Homo sapiens (Human), UniProt P23458). The experiment is described as follows: Jak Biochemical HTRF Assay, JAK1. To be noted: HTRF biochemical assay, GST-tagged catalytic domain; top concentration tested […]; read-out: JAK1 IC50. The text has this:
(§1) Jak Biochemical HTRF Assay Protocol
(§2) Subsequent reagent additions employed an Agilent Bravo.
(TR-FRET usually uses a lanthanide donor and a delayed reading to cut background.)

The next experiment concerns the target JAK2 (Homo sapiens (Human), UniProt O60674). The experiment is described as follows: Jak Biochemical HTRF Assay, JAK2.
Source text: as §1, §2

Where [1] appears, read: HTRF biochemical assay, GST-tagged catalytic domain, top concentration tested […].

Sequence of JAK2 (O60674 849-1124): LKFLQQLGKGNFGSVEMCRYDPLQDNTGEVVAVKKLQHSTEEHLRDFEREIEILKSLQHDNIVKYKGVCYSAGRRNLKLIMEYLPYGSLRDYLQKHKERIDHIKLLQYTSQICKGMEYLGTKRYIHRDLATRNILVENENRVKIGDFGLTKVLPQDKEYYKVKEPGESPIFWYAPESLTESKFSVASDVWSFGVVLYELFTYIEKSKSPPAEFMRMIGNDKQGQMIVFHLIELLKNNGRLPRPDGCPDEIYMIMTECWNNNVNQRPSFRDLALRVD
Sequence of JAK1 (P23458 875-1153): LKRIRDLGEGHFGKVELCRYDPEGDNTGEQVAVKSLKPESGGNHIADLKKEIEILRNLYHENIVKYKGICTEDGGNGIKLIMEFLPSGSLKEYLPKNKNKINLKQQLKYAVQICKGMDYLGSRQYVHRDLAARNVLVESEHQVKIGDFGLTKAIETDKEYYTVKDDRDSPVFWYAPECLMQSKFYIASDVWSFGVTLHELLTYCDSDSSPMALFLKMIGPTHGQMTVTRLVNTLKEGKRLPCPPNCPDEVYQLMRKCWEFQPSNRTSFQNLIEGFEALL

Consider `N#CCC1(n2cc(C(N)=O)c(Nc3ccc(F)cc3)n2)CCN(Cc2cccnc2)CC1` [Example 22-51, 1-[4-(cyanomethyl)-1-(pyridin-3-ylmethyl)piperidin-4-yl]-3-[(4-fluorophenyl)amino]-1H-pyrazole-4-carboxamide], for which the IC50 on JAK1 amounted to 0.4 nM; against JAK2 (setting [1]), 9 nM. As to `CC(=O)N1CC(CC#N)(n2cc(C(N)=O)c(Nc3ccccc3)n2)C1` [Example 32, 1-[1-Acetyl-3-(cyanomethyl)azetidin-3-yl]-3-(phenylamino)-1H-pyrazole-4-carboxamide], the IC50 was determined as 94 nM at JAK1 and 510 nM against JAK2 (setting [1]).

Regarding `C[C@H]1C[C@](CC#N)(n2cc(C(N)=O)c(Nc3ccccc3)n2)CCN1C(=O)OC(C)(C)C` (racemic) [Example 2-10], the half-inhibitory concentration (IC50) on JAK1 was determined as 2 nM; at JAK2 (setting [1]) it was 21 nM. In the same order, the values of `Cc1ccc(NC(=O)N2CC(CC#N)(n3cc(C(N)=O)c(Nc4ccccc4)n3)C2)cc1` [Example 38-6, 1-{3-(cyanomethyl)-1-[(4-methylphenyl)carbamoyl]azetidin-3-yl}-3-(phenylamino)-1H-pyrazole-4-carboxamide] are 2 nM and 69 nM. The compound `N#CCC1(n2cc(C(N)=O)c(Nc3ccc(F)cc3)n2)CCC(=O)CC1` [Example 40-1A, 1-(1-(Cyanomethyl)-4-oxocyclohexyl)-3-((4-fluorophenyl)amino)-1H-pyrazole-4-carboxamide] came in with an IC50 against JAK2 (setting [1]) of 39 nM. For the compound `N#CCC1(n2cc(C(N)=O)c(Nc3ccc(F)cc3)n2)CCN(Cc2cccc3cc[nH]c23)CC1` [Example 22-58, 1-[4-(cyanomethyl)-1-(1H-indol-7-ylmethyl)piperidin-4-yl]-3-[(4-fluorophenyl)amino]-1H-pyrazole-4-carboxamide], the half-maximal inhibitory concentration (IC50) is 4 nM at JAK1 and 128 nM on JAK2 (setting [1]). For `N#CCC1(n2cc(C(N)=O)c(Nc3ccnc(F)c3)n2)CCC(Nc2cc(F)ccc2F)CC1` (stereo not drawn) [Example 40-63, Cis or trans 1-{1-(cyanomethyl)-4-[(2,5-difluorophenyl)amino]cyclohexyl}-3-[(2-fluoropyridin-4-yl)amino]-1H-pyrazole-4-carboxamide] the same measures were 0.03 nM and 1 nM. As to `N#CCC1(n2cc(C(N)=O)c(Nc3ccc(S(=O)(=O)C(F)F)cc3)n2)CCC(NCC(F)F)CC1` (stereo not drawn) [Example 40-99, Cis or trans 1-{1-(cyanomethyl)-4-[(2,2-difluoroethyl)amino]cyclohexyl}-3-({4-[(difluoromethyl)sulfonyl]phenyl}amino)-1H-pyrazole-4-carboxamide], the concentration for half-maximal inhibition (IC50) was 506 nM on JAK1 and > 1500 nM on JAK2 (setting [1]). For the compound `CC(C)(C)OC(=O)N1CCC(CC#N)(n2cc(C(N)=O)c(Nc3cncc(Cl)c3)n2)CC1` [Example 9-36, tert-butyl 4-{4-carbamoyl-3-[(5-chloropyridin-3-yl)amino]-1H-pyrazol-1-yl}-4-(cyanomethyl)piperidine-1-carboxylate], the values for the IC50 on JAK1 and against JAK2 (setting [1]) were 0.9 nM and 21 nM, respectively. In the same order, the values of `COc1ccc(CN2CCC(CC#N)(n3cc(C(N)=O)c(Nc4ccnc(F)c4)n3)CC2)cc1` [Example 22-65, 1-[4-(cyanomethyl)-1-(4-methoxybenzyl)piperidin-4-yl]-3-[(2-fluoropyridin-4-yl)amino]-1H-pyrazole-4-carboxamide] are 1 nM and 16 nM. In the case of `N#CCC1(n2cc(C(N)=O)c(Nc3ccnc(F)c3)n2)CCN(Cc2ccc3[nH]ccc3c2)CC1` [Example 22-20, 1-[4-(cyanomethyl)-1-(1H-indol-5-ylmethyl)piperidin-4-yl]-3-[(2-fluoropyridin-4-yl)amino]-1H-pyrazole-4-carboxamide], the values for the IC50 on JAK1 and at JAK2 (setting [1]) were 2 nM and 31 nM, respectively. Consider `N#CCC1(n2cc(C(N)=O)c(Nc3ccc(F)cc3)n2)CCC(NCC2CC2)CC1` (stereo not drawn) [Example 40-69, Cis or trans 1-{1-(cyanomethyl)-4-[(cyclopropylmethyl)amino]cyclohexyl}-3-[(4-fluorophenyl)amino]-1H-pyrazole-4-carboxamide], for which the half-maximal inhibitory concentration (IC50) on JAK1 amounted to 9 nM; against JAK2 (setting [1]), 667 nM. The compound `C[C@H]1CN(C(=O)OC(C)(C)C)CC[C@]1(CC#N)n1cc(C(N)=O)c(Nc2ccccc2)n1` (single isomer, unassigned) [Example 48-1, tert-Butyl (3S,4R or 3R,4S)-4-[4-carbamoyl-3-(phenylamino)-1H-pyrazol-1-yl]-4-(cyanomethyl)-3-methylpiperidine-1-carboxylate] displayed an IC50 at JAK2 (setting [1]) of 24 nM. Same read-out and setting: the same measure for `N#CCC1(n2cc(C(N)=O)c(Nc3ccc(F)cc3)n2)CCN(C(=O)OC2CCOC2)CC1` (single isomer, unassigned) [Example 50-2, (3S or 3R)-tetrahydrofuran-3-yl4-{4-carbamoyl-3-[(4-fluorophenyl)amino]-1H-pyrazol-1-yl}-4-(cyanomethyl)piperidine-1-carboxylate]: 62 nM.

Regarding `N#CCC1(n2cc(C(N)=O)c(Nc3ccc(F)cc3)n2)CCC(NC2CCOCC2)CC1` (stereo not drawn) [Example 40-65, Cis or trans 1-[1-(cyanomethyl)-4-(tetrahydro-2H-pyran-4-ylamino)cyclohexyl]-3-[(4-fluorophenyl)amino]-1H-pyrazole-4-carboxamide], half-maximal inhibition at JAK2 (IC50) required 129 nM. `N#CCC1(n2cc(C(N)=O)c(Nc3ccccc3)n2)CCOCC1` [Example 6-5, 1-[4-(cyanomethyl)tetrahydro-2H-pyran-4-yl]-3-(phenylamino)-1H-pyrazole-4-carboxamide]: the IC50 against JAK2 (setting [1]) was 133 nM.

`C[C@H]1CN(C(=O)OC(C)(C)C)CC[C@]1(CC#N)n1cc(C(N)=O)c(Nc2ccccc2)n1` (racemic) [Example 2-9, tert-Butyl (3S,4R and 3R,4S)-4-[4-carbamoyl-3-(phenylamino)-1H-pyrazol-1-yl]-4-(cyanomethyl)-3-methylpiperidine-1-carboxylate] came in with an IC50 against JAK2 (setting [1]) of 21 nM. Compound `N#CC[C@]1(n2cc(C(N)=O)c(Nc3ccccc3)n2)CC[C@@H](C(=O)NCC(F)(F)F)CC1` [Example 45-1, cis or trans 1-{1-(cyanomethyl)-4-[(2,2,2-trifluoroethyl)carbamoyl]cyclohexyl}-3-(phenylamino)-1H-pyrazole-4-carboxamide] had a half-inhibitory concentration (IC50) against JAK2 of 301 nM. `N#CCC1(n2cc(C(N)=O)c(Nc3ccc(S(=O)(=O)C(F)F)cc3)n2)CCC(Nc2cccc(O)c2)CC1` (stereo not drawn) [Example 40-14, Cis or trans 1-{1-(cyanomethyl)-4-[(3-hydroxyphenyl)amino]cyclohexyl}-3-({4-[(difluoromethyl)sulfonyl]phenyl}amino)-1H-pyrazole-4-carboxamide] yielded an IC50 at JAK2 of 65 nM. The compound `N#CCC1(n2cc(C(N)=O)c(Nc3ccc(F)cc3)n2)CCN(C(=O)OC2CCOC2)CC1` (single isomer, unassigned) [Example 50-1, (3S or 3R)-tetrahydrofuran-3-yl 4-{4-carbamoyl-3-[(4-fluorophenyl)amino]-1H-pyrazol-1-yl}-4-(cyanomethyl)piperidine-1-carboxylate] gave a 50% inhibitory concentration (IC50) against JAK2 (setting [1]) of 47 nM. For `N#CCC1(n2cc(C(N)=O)c(Nc3ccc(S(=O)(=O)C(F)F)cc3)n2)CCC(Nc2cccnc2)CC1` (stereo not drawn) [Example 40-9, Cis or trans 1-[1-(cyanomethyl)-4-(pyridin-3-ylamino)cyclohexyl]-3-({4-[(difluoromethyl)sulfonyl]phenyl}amino)-1H-pyrazole-4-carboxamide], at JAK2, 352 nM corresponded to half-maximal inhibition (IC50).

Take `N#CCC1(n2cc(C(N)=O)c(Nc3ccc(S(=O)(=O)C(F)F)cc3)n2)CCC(Nc2ccccc2O)CC1` (stereo not drawn) [Example 40-32, Cis or trans 1-{1-(cyanomethyl)-4-[(2-hydroxyphenyl)amino]cyclohexyl}-3-({4-[(difluoromethyl)sulfonyl]phenyl}amino)-1H-pyrazole-4-carboxamide]: the midpoint of inhibition against JAK2, the IC50, lay at 177 nM. `C[C@H]1CN(C(=O)OC(C)(C)C)CC[C@]1(CC#N)n1cc(C(N)=O)c(Nc2ccccc2)n1` (single isomer, unassigned) [Example 48-2, tert-Butyl (3S,4R or 3R,4S)-4-[4-carbamoyl-3-(phenylamino)-1H-pyrazol-1-yl]-4-(cyanomethyl)-3-methylpiperidine-1-carboxylate] gave an IC50 against JAK2 (setting [1]) of 487 nM. In the case of `N#CCC1(n2cc(C(N)=O)c(Nc3ccnc(F)c3)n2)CCC(NC2CCOCC2)CC1` (stereo not drawn) [Example 40-38, Cis or trans 1-[1-(cyanomethyl)-4-(tetrahydro-2H-pyran-4-ylamino)cyclohexyl]-3-[(2-fluoropyridin-4-yl)amino]-1H-pyrazole-4-carboxamide], the half-inhibitory concentration (IC50) against JAK2 was 103 nM. As for `COC(=O)C(C)(C)OC(=O)N1CCC(CC#N)(n2cc(C(N)=O)c(Nc3ccc(F)cc3)n2)CC1` [Example 29-A, 1-Methoxy-2-methyl-1-oxopropan-2-yl4-{4-carbamoyl-3-[(4-fluorophenyl)amino]-1H-pyrazol-1-yl}-4-(cyanomethyl)piperidine-1-carboxylate], the IC50 on JAK2 stood at 40 nM. On JAK2 (setting [1]), `N#CCC1(n2cc(C(N)=O)c(Nc3ccc(F)cc3)n2)CCN(C(=O)OC2CCOC2)CC1` (stereo not drawn) [Example 30-46, tetrahydrofuran-3-yl 4-{4-carbamoyl-3-[(4-fluorophenyl)amino]-1H-pyrazol-1-yl}-4-(cyanomethyl)piperidine-1-carboxylate] registered an IC50 of 37 nM. In the case of `N#CCC1(n2cc(C(N)=O)c(Nc3ccc(F)cc3)n2)CCC(NCC(F)(F)F)CC1` (stereo not drawn) [Example 40-98, Cis or trans 1-{1-(cyanomethyl)-4-[(2,2,2-trifluoroethyl)amino]cyclohexyl}-3-[(4-fluorophenyl)amino]-1H-pyrazole-4-carboxamide], on JAK1, the IC50 was determined as 1 nM. In the case of `N#CCC1(n2cc(C(N)=O)c(Nc3ccc(S(=O)(=O)C(F)F)cc3)n2)CCC(Nc2ccc(O)cc2)CC1` (stereo not drawn) [Example 40-7, Cis or trans 1-{1-(cyanomethyl)-4-[(4-hydroxyphenyl)amino]cyclohexyl}-3-({4-[(difluoromethyl)sulfonyl]phenyl}amino)-1H-pyrazole-4-carboxamide], on JAK2, the IC50 worked out at 36 nM.

The term IC50 denotes the midpoint of a concentration-inhibition curve.
